The text below walks through data of publication PMC8396878, “Ether Oxidation by an Evolved Fungal Heme-Peroxygenase: Insights into Substrate Recognition and Reactivity” (Journal of Fungi, 2021).

What all share (assay type): biochemical
Test [1] addresses T1, unspecific peroxygenase (UPO) PaDa-I (Cyclocybe aegerita, UniProt B9W4V6, F354L/I291V/L110F/V100A/V118I).
T1 construct: gene APO1; laboratory-evolved variant PaDa-I, heterologously expressed and purified
T1 sequence (B9W4V6 44-371 V100A/L110F/V118I/I291V/F354L): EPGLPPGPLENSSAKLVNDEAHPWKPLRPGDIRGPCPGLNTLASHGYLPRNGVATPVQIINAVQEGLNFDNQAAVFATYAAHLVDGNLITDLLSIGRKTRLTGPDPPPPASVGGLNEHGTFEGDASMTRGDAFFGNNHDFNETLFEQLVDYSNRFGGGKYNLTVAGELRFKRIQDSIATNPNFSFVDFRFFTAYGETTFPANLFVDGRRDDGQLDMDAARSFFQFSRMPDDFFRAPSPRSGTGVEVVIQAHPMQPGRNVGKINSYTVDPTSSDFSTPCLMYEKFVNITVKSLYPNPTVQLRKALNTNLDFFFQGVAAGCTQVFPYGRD
The test can be described thus: inhibition of catalase activity (O2 production, Clark electrode); substrate consumption by HPLC.

Test [2] concerns the target T2, unspecific peroxygenase (UPO) PaDa-I (Cyclocybe aegerita, UniProt B9W4V6, V100A/L110F/V118I/I291V/F354L).
T2 construct: gene APO1; laboratory-evolved variant PaDa-I, heterologously expressed and purified
T2 sequence (B9W4V6 44-371 V100A/L110F/V118I/I291V/F354L): T1 sequence (B9W4V6 44-371 V100A/L110F/V118I/I291V/F354L)
Kind of test: colorimetric peroxygenation assay (4-nitrocatechol production), Michaelis-Menten plot.

Test [3] concerns the target T1, unspecific peroxygenase (UPO) PaDa-I. The test can be described thus: inhibition of NBD peroxygenation (Michaelis-Menten kinetics); also uncompetitive inhibition of ABTS peroxidation.
Test [4] concerns the target T2, unspecific peroxygenase (UPO) PaDa-I. Kind of test: H2O2-dependent ether oxidation, total turnover number by HPLC.

Take `OCCOCc1ccccc1` [2-(benzyloxy)ethanol]: the Ki – broadly, the dissociation constant of the complex between target and ligand, obtained from inhibition or displacement – in test [1] was found to be 0.39 mM.
`O=[N+]([O-])c1ccc2c(c1)OCO2` [NBD, 5-nitro-1,3-benzodioxole]: the “colorimetric peroxygenation assay (4-nitrocatechol production), Michaelis-Menten” value in test [2] was “Michaelis–Menten plots for (A) NBD peroxygenation and (B) ABTS peroxidation in the presence of benzyloxyacetate”.
Turning to `O=C(O)COCc1ccccc1` [benzyloxyacetate], the inhibitory constant (Ki) in test [3] worked out at 3.45 mM.
Consider `c1ccc(COCc2ccccc2)cc1` [dibenzylether], for which the “H2O2-dependent ether oxidation, total turnover number by HPLC” value in test [4] was “the more hydrophobic substrate (dibenzylether) was the most efficiently converted”.
